Assay results from article PMC4096996 (Structure (London, England : 1993), 2013).
“And” between values parts separate entries of the source, which are not always exact repeats. Identical values can stand only once.

How the values were obtained:
AvGluR1 [1] = conditions: prior studies; ref Janovjak et al., 2011; cited from earlier work
AvGluR1 LBD [2] = molecular target: T1, AvGluR1 LBD (Adineta vaga, UniProt E9P5T5, INS567GT); experiment: biochemical; format: binding; conditions: for binding affinity: β-carbon branched amino acids
T1 sequence (E9P5T5 with tags, fused parts or gaps INS567GT): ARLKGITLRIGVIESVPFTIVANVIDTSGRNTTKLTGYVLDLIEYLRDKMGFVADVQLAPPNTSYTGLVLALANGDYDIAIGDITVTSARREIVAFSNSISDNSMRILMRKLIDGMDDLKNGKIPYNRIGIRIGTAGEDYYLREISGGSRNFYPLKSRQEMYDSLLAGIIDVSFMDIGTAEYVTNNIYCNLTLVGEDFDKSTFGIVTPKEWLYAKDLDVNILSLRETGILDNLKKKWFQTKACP

AvGluR1 [3] = format: cell-based, Adineta vaga; conditions: for time constant of onset of desensitization (Figure 2A traces): 2.8 mM alanine; for amplitude of response relative to glutamate: normalized to 60 μM glutamate in the same oocyte
AvGluR1 LBD [4] = molecular target: T1, AvGluR1 LBD; experiment: Competitive displacement of 100 nM [3H] L-glutamate by 100 μM amino acids; format: binding; conditions: 100 μM competing amino acid
AvGluR1 LBD [5] = molecular target: T1, AvGluR1 LBD; experiment: Saturation binding of [3H] L-glutamate to AvGluR1 LBD apo protein
AvGluR1 LBD [6] = molecular target: T1, AvGluR1 LBD; experiment: Competitive displacement of [3H] L-glutamate with NaCl substituted by HEPES; format: binding
GluR0 from Synechocystis = conditions: read-out: Kd for glutamate, ref Chen et al., 1999; cited from earlier work
[7] = displacement of 100 nM [3H] L-Glu, NaCl buffer
[8] = Kd, displacement of 100 nM [3H] L-Glu, NaCl buffer
[9] = ligand applied at 300 times the Kd
[10] = Kd in Cl−, competitive displacement of [3H] L-glutamate, NaCl reaction buffer

For Cc1o[nH]c(=O)c1CC(N)C(=O)O (stereo not shown) [AMPA], the “activation of AvGluR1 (ligand activated ion currents)” value (“activation of AvGluR1” for short) (AvGluR1 [1]) is given as “activation” and the Kd (AvGluR1 LBD [2]; [7]) is given as 130 µM.

With NC(CCCP(=O)(O)O)C(=O)O (stereo not shown) [AP5] the Kd (AvGluR1 LBD [2]; [7]) was 530 µM.

N[C@H](CCC(=O)O)C(=O)O [D-Glu] showed a Kd (AvGluR1 LBD [2]; [7]) of 130 µM.

Compound O=[N+]([O-])c1cc2nc(O)c(O)nc2cc1[N+](=O)[O-] [DNQX] has a Kd (AvGluR1 LBD [2]; [7]) of 250 µM.

Compound CN[C@H](CC(=O)O)C(=O)O [NMDA] has a Kd (AvGluR1 LBD [2]; [7]) of 9900 µM.

With C[C@H](C[C@H](N)C(=O)O)C(=O)O [SYM2081, 2S,4R-4-methyl glutamate] the “fold lower affinity for AvGluR1” value (AvGluR1 LBD [2]; comparator not given) was 250 fold and the Kd (AvGluR1 LBD [2]; [7]) was 49.5 µM.

Compound Cc1cn(C[C@H](N)C(=O)O)c(=O)n(Cc2ccsc2C(=O)O)c1=O [UBP-310] has a Kd (AvGluR1 LBD [2]; [7]) of 160 µM.

For C[C@H](N)C(=O)O [alanine], the “time constant of onset of desensitization (Figure 2A traces)” value (AvGluR1 [3]; 60 μM glutamate) was 1.0 s.

With NC(=O)C[C@H](N)C(=O)O [asparagine] the Kd (AvGluR1 LBD [2]; [8]) was 81 µM.

In the case of N[C@@H](CC(=O)O)C(=O)O [aspartate], the “effect on binding of 100 nM [3H] L-glutamate” value (AvGluR1 LBD [4]) is given as “abolished” and the “activation of AvGluR1” value (AvGluR1 [1]) is given as “activation”.

In the case of N[C@@H](CS)C(=O)O [cysteine], the “amplitude of response relative to glutamate” value (AvGluR1 [3]; [9]) is reported as 86 ± 8% and the Kd (AvGluR1 LBD [2]; [8]) is reported as 46 µM.

For N[C@@H](CCC(=O)O)C(=O)O [glutamate, L-glutamate], the Kd (AvGluR1 LBD [5]) was 0.203 ± 0.018 µM, the 10-90% rise time (AvGluR1 [3]; 60 μM glutamate) was 240 ± 67 ms and the “time constant of desensitization (single exponential)” value (AvGluR1 [3]; 60 μM glutamate) was 626 ± 255 ms. The “time constant of onset of desensitization (Figure 2A traces)” value (AvGluR1 [3]; 60 μM glutamate) was 1.25 s, the inward current amplitude (AvGluR1 [3]; 60 μM glutamate, mean ± SD, n = 9) was 5.1 ± 1.4 μA and the “time constant of recovery from desensitization” value (AvGluR1 [3]; 60 μM glutamate, twin pulse protocol) was 26 s and 25.7 s. The “time constant of onset of desensitization” value (AvGluR1 [3]; 100 μM glutamate, wild type AvGluR1 control response (Figure 7D)) was 460 ms, the “extent of desensitization” value (AvGluR1 [3]; [9]) was “complete desensitization” and the “effect on binding of 100 nM [3H] L-glutamate” value (AvGluR1 LBD [4]) was “abolished”. For the same compound, the “activation of AvGluR1” value (AvGluR1 [1]) was “activation”, the Kd (AvGluR1 LBD [6]) was 0.3 ± 0.04 µM and the Kd (GluR0 from Synechocystis) was 0.193 µM. For the same compound, the Kd (AvGluR1 LBD [2]; [10]) was 0.27 ± 0.02 µM and the Kd (AvGluR1 LBD [2]; Kd, sequence of Kd values, Figure 1C and Table S1) was 0.203 µM.

In the case of NC(=O)CC[C@H](N)C(=O)O [glutamine], the Kd (AvGluR1 LBD [2]; [8]) is reported as 37 µM.

With CC[C@H](C)[C@H](N)C(=O)O [isoleucine] the “binding affinity” value (AvGluR1 LBD [2]) was “low affinity”.

In the case of C=C(C)[C@H]1CN[C@H](C(=O)O)[C@H]1CC(=O)O [kainate], the “activation of AvGluR1” value (AvGluR1 [1]) is listed as “activation” and the Kd (AvGluR1 LBD [2]; [7]) is listed as 2700 µM.

For CSCC[C@H](N)C(=O)O [methionine], the “amplitude of response relative to glutamate” value (AvGluR1 [3]; [9]) was 64 ± 7%, the Kd (AvGluR1 LBD [6]) was 270 ± 52 µM and the Kd (AvGluR1 LBD [2]; [10]) was 15.1 ± 2.5 µM. For the same compound, the Kd (AvGluR1 LBD [2]; [8]) was 15 µM.

With N[C@@H](Cc1ccccc1)C(=O)O [phenylalanine] the “amplitude of response relative to glutamate” value (AvGluR1 [3]; [9]) was 33 ± 6%.

Work on N[C@@H](Cn1oc(=O)[nH]c1=O)C(=O)O [quisqualate] yielded a Kd (AvGluR1 LBD [2]; [8]) of 39 µM.

In the case of N[C@@H](CO)C(=O)O [serine], the “activation of AvGluR1” value (AvGluR1 [1]) is given as “activation”.

With C[C@@H](O)[C@H](N)C(=O)O [threonine] the “binding affinity” value (AvGluR1 LBD [2]) was “low affinity”.

With CC(C)[C@H](N)C(=O)O [valine] the “binding affinity” value (AvGluR1 LBD [2]) was “low affinity”.

In the case of concanavalin A, the “effect on AvGluR1 desensitization” value (AvGluR1 [3]; 0.5 mg/ml for 4 minutes) is reported as “strongly attenuated”.
